From US10114018B2, “IL-2 peptide derivatives, and uses thereof for the diagnosis and treatment of an autoimmune disease” (INSERM (INSTITUT NATIONAL DE LA SANTÉ ET DE LA RECHERCHE …, priority 2014, dated 2018)

Tested on: PBMCs from HD or T1D patients
Test: Quantification of IL-2 specific T cells by IFN-g ELISPOT
Assay type: cell-based, human
Settings: peptides 10 μM/each; T1D patients (n=13) vs HD (n=14) PBMCs
Experimental: IFN-g production by PBMCs from HD (n=14, closed circles) or T1D patients (n=13, open circles) was quantified by ELISPOT after stimulation with hIL-2 or Proleukin (Pro) peptides (10 μM/each) that gave a positive response in the initial pool screening, intracellular IA-2, adenovirus lysate (AdV) or PHA.

**Q.** With “EFLNRWITFSQSIIS (Synthetic fragment) [Pro116-130]” as the sequence, how does the “IFN-g production by PBMCs (ELISPOT, IFN-g spot-forming cells/10^6 PBMCs)” value read?
**A.** Its value is “can induce IFN-g production in a significantly higher frequency of T1D PBMCs compared to HD PBMCs”.
